This assay relates to NCI-H295R. In words: IC50 (antiproliferative, ATP content). Conditions: 48 h. In outline:
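Serum-free ITS-supplemented DMEM was used to seed 1500 adrenocortical carcinoma cells per well in 1536-well plates, which were cultured overnight. Eight final concentrations of each library compound, from 0.6 nM to 46 µM, were added by pin transfer, followed by 48 h at 37 °C in 5% CO2 and a CellTiter-Glo ATP read after 20 min at room temperature. Luminescence was set against vehicle and positive-control wells, and the IC50 was obtained by logistic curve fitting. Any compound with no concentration response was entered as above the top dose.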
For the compound `Cl.O=C(O)c1cn(-c2ccc(F)cc2)c2cc(N3CCNCC3)c(F)cc2c1=O`, the IC50 (as a rule, the midpoint of a concentration-inhibition curve) is > 46 µM.

Regarding `CC/C=C\C/C=C\C/C=C\C/C=C\C/C=C\CCCC(=O)O`, the IC50 was > 46 µM.

As to `O=C/C=C/c1ccccc1`, the IC50 is > 46 µM.

For `C[C@]12CCC(=O)C[C@@H]1CC[C@@H]1[C@@H]2CC[C@]2(C)C=CC[C@@H]12`, the IC50 was > 46 µM.

For `CCOC(=O)c1cncn1C(C)c1ccccc1` (stereo not drawn), the IC50 was > 46 µM.

With `CCN(CC)C(=O)Nc1ccc(OCC(O)CNC(C)(C)C)c(C(C)=O)c1.Cl` (stereo not drawn), the IC50 is > 46 µM.

Turning to `C[N+]1(CCCCC[N+]2(C)CCCC2)CCCC1.O=C([O-])[C@H](O)[C@@H](O)C(=O)O.O=C([O-])[C@H](O)[C@@H](O)C(=O)O`, the IC50 was > 46 µM.

In the case of `O=C1c2ccccc2S(=O)(=O)N1CCCCN1CCN(c2ncccn2)CC1`, the IC50 is > 46 µM.

For `Cc1cccc(C)c1NC(=O)c1ccccc1C(=O)O`, the IC50 is > 46 µM.

With `CCCCCCOc1ccccc1C(N)=O`, the IC50 was > 46 µM.

In the case of `O=C(Cn1ccnc1[N+](=O)[O-])NCc1ccccc1`, the IC50 is > 46 µM.

In the case of `CN1C[C@@H](NS(=O)(=O)N(C)C)C[C@@H]2c3cccc4c3c(cn4C)C[C@H]21`, the IC50 is > 46 µM.

For the compound `O=C1c2ccccc2-c2n[nH]c3cccc1c23`, the IC50 is > 46 µM.

As to `OS(C1=C(C(C)C)C=C3C([C@@]2(C)CCC[C@]([C@@](O)=O)(C)[C@@]([H])2CC3)=C1)(=O)=O`, the IC50 is > 46 µM.

As to `CO/N=C(\C(=O)N[C@@H]1C(=O)N2C(C(=O)O)=C(CSC(=O)c3ccco3)CS[C@H]12)c1csc(N)n1`, the IC50 is > 46 µM.

Take `CN1C(=O)CN2CCc3ccccc3C2c2cc(Cl)ccc21` (stereo not drawn): the IC50 was > 46 µM.

On to `CCCCO`, for which the IC50 is > 46 µM.

Consider `COc1cccc([C@@]2(O)CCCC[C@@H]2CN(C)C)c1`, for which the IC50 is > 46 µM.

For `NS(=O)(=O)c1cc2c(cc1Cl)N=C(CSCc1ccccc1)NS2(=O)=O`, the IC50 was > 46 µM.

With `CC(C)(C)OC(=O)c1ncn2c1[C@@H]1CCCN1C(=O)c1c(Br)cccc1-2`, the IC50 is > 46 µM.

Regarding `COc1ccc(C=CC(=O)OCCC(C)C)cc1`, the IC50 was > 46 µM.

Consider `O=C(O)CN1C(=O)c2cccc3cccc(c23)C1=O`, for which the half-inhibitory concentration (IC50) was > 46 µM.

Regarding `CCN1CCCC1=O`, the IC50 is > 46 µM.

With `CCCCCN(CCCCC)C(=O)C(CCC(=O)[O-])NC(=O)c1ccc(Cl)c(Cl)c1.[Na+]` (stereo not drawn), the IC50 is > 46 µM.

For `O=C(O)C(Cc1cc(I)c(O)c(I)c1)c1ccccc1` (stereo not drawn), the IC50 was > 46 µM.

As to `Cl.O=C(OCC(O)CO)c1ccccc1Nc1ccnc2cc(Cl)ccc12` (stereo not drawn), the IC50 was > 46 µM.

Consider `CCOC(=O)OC(C)OC1=C(C(=O)Nc2ccccn2)N(C)S(=O)(=O)c2ccccc21` (stereo not drawn), for which the IC50 is > 46 µM.

As to `NC(=O)CN1CC(O)CC1=O` (stereo not drawn), the half-inhibitory concentration (IC50) was > 46 µM.

Turning to `O=C1C2=C(C=C(C=C2O)O)O/C(=C\1O)C3=CC(=C(C=C3)O)O.O.O`, the IC50 is > 46 µM.

As to `CC(NNC(=O)c1ccccc1)c1ccccc1` (stereo not drawn), the IC50 was > 46 µM.

Turning to `O=C1CN=C(c2ccccc2)c2cc([N+](=O)[O-])ccc2N1`, the IC50 was > 46 µM.

Turning to `C=CCN1CCc2nc(N)sc2CC1`, the IC50 was > 46 µM.

As to `COc6cc7N1C(=O)CC2OC\C=C5\CN3CC[C@@]4(C1[C@H]2[C@H]5C[C@H]34)c7cc6OC` (stereo partly drawn), the IC50 is > 46 µM.

Consider `O=C1O[C@@H]3CCN2C\C=C(\COC(=O)[C@](C)(O)[C@](C)(O)[C@H]1C)[C@@H]23`, for which the IC50 is > 46 µM.

For the compound `CCCCOc1ccc(OCCCN2CCOCC2)cc1.Cl`, the IC50 is > 46 µM.

Regarding `Oc1ccc(Cl)cc1Cc1ccccc1`, the 50% inhibitory concentration (IC50) is > 46 µM.

In the case of `Cl.Cl.NCCNc1cccc2ccccc12`, the IC50 is > 46 µM.

In the case of `CCC(=O)O.CCC(=O)O.O=C(Nc1cccc(C2=NCCN2)c1)Nc1cccc(C2=NCCN2)c1`, the IC50 was > 46 µM.

On to `CC(=O)O[C@H]1C[C@@]2(C)[C@@H](C[C@@H](O)[C@H]3[C@@]4(C)CC[C@@H](O)[C@@H](C)[C@@H]4CC[C@@]32C)/C1=C(\CCC=C(C)C)C(=O)[O-].[Na+]`, for which the IC50 is > 46 µM.

Consider `O=c1[nH]c(=O)n([C@H]2C[C@H](O)[C@@H](CO)O2)cc1/C=C/Br`, for which the IC50 was > 46 µM.

On to `O=C1OC(c2ccc(O)c(S(=O)(=O)[O-])c2)(c2ccc(O)c(S(=O)(=O)[O-])c2)c2c(Br)c(Br)c(Br)c(Br)c21.[Na+].[Na+]`, for which the IC50 is > 46 µM.

On to `CCC(C)C(N)C(=O)O` (stereo not drawn), for which the IC50 was > 46 µM.

Take `CCC(=O)OCC(=O)[C@@]1(OC(=O)CC)[C@H](C)C[C@H]2[C@H]3[C@H]([C@@H](O)C[C@@]21C)[C@@]1(C)C=CC(=O)C=C1C[C@H]3Cl`: the IC50 was > 46 µM.

In the case of `Nc1nc(Cl)nc2c1ncn2[C@H]1C[C@H](O)[C@@H](CO)O1`, the IC50 was > 46 µM.

For `OCCOCCN1CCN(C2=Nc3ccccc3Sc3ccccc32)CC1`, the IC50 was > 46 µM.

Regarding `CCn1cc(C(=O)O)c(=O)c2cc(F)c(N3CCNC(C)C3)c(F)c21.Cl` (stereo not drawn), the IC50 was > 46 µM.

Turning to `CCC(COC(=O)c1cc(OC)c(OC)c(OC)c1)(c1ccccc1)N(C)C.O=C(O)/C=C\C(=O)O` (stereo not drawn), the IC50 is > 46 µM.

For the compound `CCC(Cc1c(I)cc(I)c(N)c1I)C(=O)O` (stereo not drawn), the half-maximal inhibitory concentration (IC50) is > 46 µM.

On to `NC(=O)C1c2ccccc2CCc2ccccc21`, for which the IC50 is > 46 µM.

For `O[C@@H]([C@H](O)[C@H](O)CBr)[C@H](O)CBr`, the concentration for half-maximal inhibition (IC50) was > 46 µM.

On to `CCCCC/C=C\C/C=C\CCCCCCCC(=O)O`, for which the IC50 was > 46 µM.

For `CCC(=O)c1ccc(O)cc1`, the half-inhibitory concentration (IC50) is > 46 µM.

`O=C(O)C1CCCN1` (stereo not drawn): the IC50 was > 46 µM.

For `CN1Cc2c(N)cccc2C(c2ccccc2)C1.O=C(O)/C=C\C(=O)O` (stereo not drawn), the IC50 was > 46 µM.

Consider `CC1(C)NC(=O)N(c2ccc([N+](=O)[O-])c(C(F)(F)F)c2)C1=O`, for which the IC50 was > 46 µM.

On to `Cc1noc(NS(=O)(=O)c2ccc(N)cc2)c1C`, for which the IC50 is > 46 µM.

Take `CCn1cc(C(=O)O)c(=O)c2cc(F)c(N3CCN(C)CC3)cc21.CS(=O)(=O)O`: the IC50 was > 46 µM.

As to `CN[C@@H]1[C@H](O[C@H]2[C@H](O[C@H]3[C@H](O)[C@@H](O)[C@H](NC(=N)N)[C@@H](O)[C@@H]3NC(=N)N)O[C@@H](C)[C@]2(O)C=O)O[C@@H](CO)[C@H](O)[C@H]1O.CN[C@@H]1[C@H](O[C@H]2[C@H](O[C@H]3[C@H](O)[C@@H](O)[C@H](NC(=N)N)[C@@H](O)[C@@H]3NC(=N)N)O[C@@H](C)[C@]2(O)C=O)O[C@@H](CO)[C@H](O)[C@H]1O.O=S(=O)(O)O.O=S(=O)(O)O.O=S(=O)(O)O`, the IC50 was > 46 µM.

As for `CCCCCCCC/C=C\CCCCCCCC(=O)O`, the IC50 is > 46 µM.

As for `CC/C(=C(/CC)c1ccc(OP(=O)(O)O)cc1)c1ccc(OP(=O)(O)O)cc1`, the IC50 is > 46 µM.

As for `CCOc1ccc(S(=O)(=O)O)c2cccnc12`, the IC50 was > 46 µM.

As for `CC(C)[C@H](NC(=O)[C@H](CC(=O)O)NC(=O)[C@H](CCCCN)NC(=O)[C@@H](N)CCCNC(=N)N)C(=O)N[C@@H](Cc1ccc(O)cc1)C(=O)O`, the IC50 is > 46 µM.

On to `O=C1Nc2ccc(Cl)cc2C(c2ccccc2Cl)=NC1O` (stereo not drawn), for which the IC50 was > 46 µM.

On to `CCOC(=O)c1ccc(OC(=O)CCCCCNC(=N)[NH3+])cc1.CS(=O)(=O)[O-]`, for which the IC50 is > 46 µM.

With `C[C@H](C(=O)[O-])c1cccc(Oc2ccccc2)c1.C[C@H](C(=O)[O-])c1cccc(Oc2ccccc2)c1.O.O.[Ca+2]`, the IC50 was > 46 µM.

As to `O=C(Nc1ccc(C(=O)O)c(O)c1)c1ccccc1`, the 50% inhibitory concentration (IC50) is > 46 µM.

Consider `Nc1ncn([C@H]2C[C@H](O)[C@@H](CO)O2)c(=O)n1`, for which the IC50 is > 46 µM.

Regarding `C\C1=C\N(C(=O)NC1=O)[C@H]2\C=C/[C@@H](CO)O2`, the IC50 is > 46 µM.

For `O=C(O)CCNC(=O)c1ccccc1`, the IC50 was > 46 µM.

Turning to `O=C(O)c1cccc(-c2noc(-c3ccccc3F)n2)c1`, the IC50 was > 46 µM.

Take `C[C@H]1CCC[C@H](O)CCCCCc2cc(O)cc(O)c2C(=O)O1`: the IC50 is > 46 µM.

Consider `OCc1ccccn1`, for which the IC50 is > 46 µM.

In the case of `CN[C@@H]1[C@@H](O[C@H]2O[C@H](CO)[C@@H](N)[C@H](O)[C@H]2O)O[C@H]2C[C@@H](N)[C@@H](O[C@H]3[C@H](O)[C@@H](O)[C@H](N)C[C@@H]3N)O[C@@H]2[C@@H]1O`, the IC50 is > 46 µM.

`COc1cc2ncnc(Nc3ccc(F)c(Cl)c3)c2cc1OCCCN1CCOCC1`: the IC50 is > 46 µM.

Consider `C[N+]1(CC2COC(c3ccccc3)(C3CCCCC3)O2)CCCCC1.[I-]` (stereo not drawn), for which the IC50 was > 46 µM.

With `CC1=CCC2CC1C2(C)C` (stereo not drawn), the IC50 is > 46 µM.

With `CN1CCN2c3ncccc3Cc3ccccc3C2C1` (stereo not drawn), the IC50 is > 46 µM.

As for `Nc1ccc(C(=O)Oc2ccccc2)c(O)c1`, the IC50 was > 46 µM.

Consider `NCC[C@H](O)C(=O)N[C@@H]1C[C@H](N)[C@@H](O[C@H]2O[C@H](CN)CC[C@H]2N)[C@H](O)[C@H]1O[C@H]1O[C@H](CO)[C@@H](O)[C@H](N)[C@H]1O.O=S(=O)(O)O`, for which the IC50 is > 46 µM.

Turning to `NS(=O)(=O)c1cc2c(cc1C(F)(F)F)NCNS2(=O)=O`, the IC50 is > 46 µM.

Turning to `CN1CCN(c2c(F)cc3c(=O)c(C(=O)O)cn4c3c2OCN4C)CC1`, the IC50 is > 46 µM.

As for `F[C@]2([C@](C)3CC4)[C@@H](O)C[C@]([C@](C5)([H])[C@@]([H])2CCC3=CC4=O)(C)[C@@]1([C@](CCl)=O)[C@@H]5OC(C)(C)O1`, the IC50 was > 46 µM.

In the case of `CC(=O)Nc1c(I)c(C(=O)N[C@H]2C(O)O[C@H](CO)[C@@H](O)[C@@H]2O)c(I)c(N(C)C(C)=O)c1I` (stereo partly drawn), the IC50 was > 46 µM.
